Test results reported in US20240299387A1, “HETEROCYCLIC EGFR INHIBITORS FOR USE IN THE TREATMENT OF CANCER” (Blueprint Medicines Corporation, priority 2021, published 2024).

Tests used:
[1] = test system: EGFR mutant NSCLC (EGFR M+); details: NSCLC patients; average treatment time to resistance; cited from earlier work
EGFR (L858R T790M C797S) = molecular target: T1, EGFR (L858R T790M C797S) (Homo sapiens, UniProt P00533, C797S/L858R/T790M); experiment: Biochemical EGFR inhibition assay (Caliper mobility shift), EGFR LRTMCS mutant; details: LRTMCS (PH) IC50 (nM) @ 1 mM ATP (Num)
T1 construct: purchased SignalChem E10-122VG
T1 sequence (P00533 25-1210 T790M/C797S/L858R): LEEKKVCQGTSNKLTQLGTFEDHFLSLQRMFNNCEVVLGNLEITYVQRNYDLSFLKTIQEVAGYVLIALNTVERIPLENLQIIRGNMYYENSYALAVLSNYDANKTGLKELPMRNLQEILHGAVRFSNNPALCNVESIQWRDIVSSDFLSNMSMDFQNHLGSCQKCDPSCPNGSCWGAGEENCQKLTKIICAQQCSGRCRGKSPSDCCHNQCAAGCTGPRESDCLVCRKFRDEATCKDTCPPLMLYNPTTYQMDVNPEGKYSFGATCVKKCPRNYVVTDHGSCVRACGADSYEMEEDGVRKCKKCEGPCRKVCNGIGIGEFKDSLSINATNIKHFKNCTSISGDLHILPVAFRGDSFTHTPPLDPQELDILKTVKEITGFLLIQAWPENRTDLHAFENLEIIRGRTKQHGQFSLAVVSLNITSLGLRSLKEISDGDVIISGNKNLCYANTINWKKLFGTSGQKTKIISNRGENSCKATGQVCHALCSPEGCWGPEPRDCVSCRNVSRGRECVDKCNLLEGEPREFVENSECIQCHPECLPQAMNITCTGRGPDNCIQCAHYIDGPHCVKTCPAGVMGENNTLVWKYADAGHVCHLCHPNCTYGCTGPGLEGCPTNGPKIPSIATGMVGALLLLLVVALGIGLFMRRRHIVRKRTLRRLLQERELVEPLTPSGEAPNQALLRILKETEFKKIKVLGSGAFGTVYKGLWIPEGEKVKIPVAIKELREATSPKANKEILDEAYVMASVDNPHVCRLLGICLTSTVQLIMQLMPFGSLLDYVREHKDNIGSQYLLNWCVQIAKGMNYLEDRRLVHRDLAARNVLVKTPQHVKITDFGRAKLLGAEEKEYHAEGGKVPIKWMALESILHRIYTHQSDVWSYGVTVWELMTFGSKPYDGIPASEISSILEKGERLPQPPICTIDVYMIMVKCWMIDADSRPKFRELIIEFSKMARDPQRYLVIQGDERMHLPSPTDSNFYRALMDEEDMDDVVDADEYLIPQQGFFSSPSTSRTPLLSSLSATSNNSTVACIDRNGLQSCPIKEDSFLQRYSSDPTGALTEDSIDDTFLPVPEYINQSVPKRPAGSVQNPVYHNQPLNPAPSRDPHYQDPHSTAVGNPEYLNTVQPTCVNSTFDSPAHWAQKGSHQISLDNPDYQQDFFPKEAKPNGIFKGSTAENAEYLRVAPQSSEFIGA
Summary of the method: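 Kinase reactions at 25 °C run to 10–20% peptide phosphorylation, stopped with 35 mM EDTA. Phosphorylated product and substrate separated electrophoretically by mobility shift. Apparent IC50 from percent activity versus log compound concentration.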

[2] = molecular target: T2, EGFR L858R T790M in NCI-H1975 cell line (Homo sapiens, UniProt P00533, L858R/T790M); experiment: NCI-H1975 pEGFR AlphaLISA assay; assay type: cell-based; details: NCI-H1975 cells (EGFR L858R T790M), p-EGFR (Tyr1068), 4-5 hours incubation; read-out: Ext pEGFR H1975 GMean IC50 (nM) Protocol: @Pharmaron AlphaLISA (Num)
T2 construct: host or cells: NCI-H1975
T2 sequence (P00533 25-1210 T790M/L858R): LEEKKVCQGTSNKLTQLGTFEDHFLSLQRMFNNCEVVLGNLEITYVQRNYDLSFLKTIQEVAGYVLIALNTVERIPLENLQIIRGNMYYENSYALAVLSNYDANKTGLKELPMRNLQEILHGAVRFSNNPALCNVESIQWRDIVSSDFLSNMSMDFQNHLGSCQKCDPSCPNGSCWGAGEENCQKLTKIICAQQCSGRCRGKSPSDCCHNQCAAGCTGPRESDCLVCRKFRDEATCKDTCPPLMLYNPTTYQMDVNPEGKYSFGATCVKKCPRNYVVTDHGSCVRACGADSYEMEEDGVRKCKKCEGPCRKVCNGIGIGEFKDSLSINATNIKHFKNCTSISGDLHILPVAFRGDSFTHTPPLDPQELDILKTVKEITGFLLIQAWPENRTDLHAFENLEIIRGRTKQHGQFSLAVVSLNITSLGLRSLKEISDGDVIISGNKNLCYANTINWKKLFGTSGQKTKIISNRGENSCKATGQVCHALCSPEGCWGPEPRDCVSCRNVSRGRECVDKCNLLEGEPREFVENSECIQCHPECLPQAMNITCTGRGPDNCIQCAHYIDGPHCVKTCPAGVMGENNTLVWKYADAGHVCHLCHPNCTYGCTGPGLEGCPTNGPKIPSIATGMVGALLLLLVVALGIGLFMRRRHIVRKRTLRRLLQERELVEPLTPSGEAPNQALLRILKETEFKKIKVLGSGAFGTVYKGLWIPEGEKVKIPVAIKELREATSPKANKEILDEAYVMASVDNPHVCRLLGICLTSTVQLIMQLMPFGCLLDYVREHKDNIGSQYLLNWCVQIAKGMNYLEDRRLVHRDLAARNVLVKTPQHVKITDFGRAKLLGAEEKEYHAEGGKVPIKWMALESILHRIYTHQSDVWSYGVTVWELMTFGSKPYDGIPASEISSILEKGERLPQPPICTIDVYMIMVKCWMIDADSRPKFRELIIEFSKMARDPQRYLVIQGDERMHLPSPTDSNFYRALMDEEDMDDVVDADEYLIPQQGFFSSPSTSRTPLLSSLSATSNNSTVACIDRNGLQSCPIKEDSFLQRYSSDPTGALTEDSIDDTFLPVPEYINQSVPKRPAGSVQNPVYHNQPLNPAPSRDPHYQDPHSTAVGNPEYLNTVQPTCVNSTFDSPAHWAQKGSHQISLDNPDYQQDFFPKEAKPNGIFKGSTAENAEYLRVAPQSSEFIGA
Summary of the method: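 Phospho-EGFR measured by AlphaLISA after overnight donor-bead incubation; IC50 from percent pEGFR inhibition versus log concentration.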

Row | Compound | IC50 (EGFR (L858R T790M C797S)) | IC50 [2] | time of treatment until resistance is observed [1]
1 | C=CC(=O)Nc1cc(Nc2nccc(-c3cn(C)c4ccccc34)n2)c(OC)cc1N(C)CCN(C)C [osimertinib] | – | – | approximately 10 months
2 | CNc1ncc(C(C)C)c2cc(Nc3ccnc(N4CC[C@@H](O)[C@@H](F)C4)n3)ncc12 [Example 92, (3S,4R)-3-fluoro-1-(4-((5-isopropyl-8-(methylamino)-2,7-naphthyridin-3-yl)amino)pyrimidin-2-yl)piperidin-4-ol] | 30 to 100 nM | > 50 nM | –
3 | CC(C)c1ccc(OCCN2CCOCC2)c2cnc(Nc3ccnc(N4CC[C@](C)(O)[C@H](F)C4)n3)cc12 [Example 31, (3R,4S)-3-fluoro-1-(4-((5-isopropyl-8-(2-morpholinoethoxy)isoquinolin-3-yl)amino)pyrimidin-2-yl)-4-methylpiperidin-4-ol] | < 15 nM | > 50 nM | –
4 | CC(C)NC(=O)c1ncc(C(C)C)c2cc(Nc3ccnc(N4CC[C@@H](O)[C@@](C)(F)C4)n3)ncc12 [Example 69, 6-((2-((3S,4R)-3-fluoro-4-hydroxy-3-methylpiperidin-1-yl)pyrimidin-4-yl)amino)-N,4-diisopropyl-2,7-naphthyridine-1-carboxamide] | 20 to 30 nM | > 50 nM | –
5 | CO[C@H]1C[C@H](NC(=O)c2ncc(C(C)C)c3cc(Nc4ccnc(N5CC[C@@H](O)[C@@](C)(F)C5)n4)ncc23)C1 [Example 74, 6-((2-((3S,4R)-3-fluoro-4-hydroxy-3-methylpiperidin-1-yl)pyrimidin-4-yl)amino)-4-isopropyl-N-((1r,3r)-3-methoxycyclobutyl)-2,7-naphthyridine-1-carboxamide] | < 15 nM | 20 to 30 nM | –
6 | CC(C)c1cnc(C(=O)NCC(F)F)c2cnc(Nc3ccnc(N4CC[C@@H](O)[C@@](C)(F)C4)n3)cc12 [Example 67, N-(2,2-difluoroethyl)-6-((2-((3S,4R)-3-fluoro-4-hydroxy-3-methylpiperidin-1-yl)pyrimidin-4-yl)amino)-4-isopropyl-2,7-naphthyridine-1-carboxamide] | < 15 nM | > 50 nM | –
7 | CC(C)c1ccc(OC[C@@H]2CC(=O)N(C)C2)c2cnc(Nc3ccnc(N4CC[C@@H](O)[C@@](C)(F)C4)n3)cc12 (single isomer, unassigned) [Example 20] | < 15 nM | 10 to 20 nM | –

Second part, led by results:

Row | IC50 (EGFR (L858R T790M C797S)) | IC50 [2] | Compound | time of treatment until resistance is observed [1]
8 | < 15 nM | < 10 nM | CC(=O)N1CC([C@@H](C)Oc2ccc(C(C)C)c3cc(Nc4ccnc(N5CC[C@@H](O)[C@@](C)(F)C5)n4)ncc23)C1 (single isomer, unassigned) [Example 24, 1-(3-((R)-1-((3-((2-((3S,4R)-3-fluoro-4-hydroxy-3-methylpiperidin-1-yl)pyrimidin-4-yl)amino)-5-isopropylisoquinolin-8-yl)oxy)ethyl)azetidin-1-yl)ethan-1-one or 1-(3-((S)-1-((3-((2-((3S,4R)-3-fluoro-4-hydroxy-3-methylpiperidin-1-yl)pyrimidin-4-yl)amino)-5-isopropylisoquinolin-8-yl)oxy)ethyl)azetidin-1-yl)ethan-1-one] | –
9 | < 15 nM | 20 to 30 nM | CC(C)c1ccc(OCCn2cnnc2)c2cnc(Nc3ccnc(N4CC[C@@](C)(O)[C@@H](F)C4)n3)cc12 [Example 28, (3S,4R)-1-(4-((8-(2-(4H-1,2,4-triazol-4-yl)ethoxy)-5-isopropylisoquinolin-3-yl)amino)pyrimidin-2-yl)-3-fluoro-4-methylpiperidin-4-ol] | –
10 | < 15 nM | > 50 nM | CC(C)c1ccc(OCCn2ccnn2)c2cnc(Nc3ccnc(N4CC[C@](C)(O)[C@H](F)C4)n3)cc12 [Example 32, (3R,4S)-1-(4-((8-(2-(1H-1,2,3-triazol-1-yl)ethoxy)-5-isopropylisoquinolin-3-yl)amino)pyrimidin-2-yl)-3-fluoro-4-methylpiperidin-4-ol] | –
11 | < 15 nM | > 50 nM | CC(C)c1ccc(OCCn2cnnc2)c2cnc(Nc3ccnc(N4CC[C@](C)(O)[C@H](F)C4)n3)cc12 [Example 27, (3R,4S)-1-(4-((8-(2-(4H-1,2,4-triazol-4-yl)ethoxy)-5-isopropylisoquinolin-3-yl)amino)pyrimidin-2-yl)-3-fluoro-4-methylpiperidin-4-ol] | –
12 | < 15 nM | > 50 nM | Cc1nncn1CCOc1ccc(C(C)C)c2cc(Nc3ccnc(N4CC[C@](C)(O)[C@H](F)C4)n3)ncc12 [Example 30, (3R,4S)-3-fluoro-1-(4-((5-isopropyl-8-(2-(3-methyl-4H-1,2,4-triazol-4-yl)ethoxy)isoquinolin-3-yl)amino)pyrimidin-2-yl)-4-methylpiperidin-4-ol] | –
